Assay results taken from the supplement of paper PMC11451515.

Tested on: P12-Ichikawa
Assay: cell viability relative to DMSO control; higher = less cytotoxic
Settings: 48 h
How it was run: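 Library compounds in DMSO were pin-dosed into 1536-well plates (5 μl) holding NOMO1 or SEM (500 cells/well) or P12-Ichikawa (1000 cells/well) leukemia cells, across an 11-point threefold series of 47 μM to 0.79 nM. Each cell line had been adapted for at least four passages in each medium. CellTiter-Glo One luminescence was read after 48 h at 37°C. Viability is the per-plate percentage relative to DMSO wells, with cell-free wells as background.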

[1] = HPLM + 10% dialyzed FBS, 0.000781 µM
[2] = HPLM + 10% dialyzed FBS, 0.00234 µM
[3] = HPLM + 10% dialyzed FBS, 0.00702 µM
[4] = HPLM + 10% dialyzed FBS, 0.0211 µM
[5] = HPLM + 10% dialyzed FBS, 0.0632 µM
[6] = HPLM + 10% dialyzed FBS, 0.19 µM
[7] = HPLM + 10% dialyzed FBS, 0.569 µM
[8] = HPLM + 10% dialyzed FBS, 1.71 µM
[9] = HPLM + 10% dialyzed FBS, 5.12 µM
[10] = HPLM + 10% dialyzed FBS, 15.4 µM
[11] = HPLM + 10% dialyzed FBS, 46.1 µM
[12] = RPMI 5 mM glucose + 10% FBS, 0.000781 µM
[13] = RPMI 5 mM glucose + 10% FBS, 0.00234 µM
[14] = RPMI 5 mM glucose + 10% FBS, 0.00702 µM
[15] = RPMI 5 mM glucose + 10% FBS, 0.0211 µM
[16] = RPMI 5 mM glucose + 10% FBS, 0.0632 µM
[17] = RPMI 5 mM glucose + 10% FBS, 0.19 µM
[18] = RPMI 5 mM glucose + 10% FBS, 0.569 µM
[19] = RPMI 5 mM glucose + 10% FBS, 1.71 µM
[20] = RPMI 5 mM glucose + 10% FBS, 5.12 µM
[21] = RPMI 5 mM glucose + 10% FBS, 15.4 µM
[22] = RPMI 5 mM glucose + 10% FBS, 46.1 µM
[23] = RPMI 5 mM glucose + 10% dialyzed FBS, 0.000781 µM
[24] = RPMI 5 mM glucose + 10% dialyzed FBS, 0.00234 µM
[25] = RPMI 5 mM glucose + 10% dialyzed FBS, 0.00702 µM
[26] = RPMI 5 mM glucose + 10% dialyzed FBS, 0.0211 µM
[27] = RPMI 5 mM glucose + 10% dialyzed FBS, 0.0632 µM
[28] = RPMI 5 mM glucose + 10% dialyzed FBS, 0.19 µM
[29] = RPMI 5 mM glucose + 10% dialyzed FBS, 0.569 µM
[30] = RPMI 5 mM glucose + 10% dialyzed FBS, 1.71 µM
[31] = RPMI 5 mM glucose + 10% dialyzed FBS, 5.12 µM
[32] = RPMI 5 mM glucose + 10% dialyzed FBS, 15.4 µM
[33] = RPMI 5 mM glucose + 10% dialyzed FBS, 46.1 µM

Row | SMILES | cell viability [1] | cell viability [2] | cell viability [3] | cell viability [4] | cell viability [5] | cell viability [6] | cell viability [7] | cell viability [8] | cell viability [9] | cell viability [10] | cell viability [11] | cell viability [12] | cell viability [13] | cell viability [14] | cell viability [15] | cell viability [16] | cell viability [17] | cell viability [18] | cell viability [19] | cell viability [20] | cell viability [21] | cell viability [22] | cell viability [23] | cell viability [24] | cell viability [25] | cell viability [26] | cell viability [27] | cell viability [28] | cell viability [29] | cell viability [30] | cell viability [31] | cell viability [32] | cell viability [33]
1 | C/C(O)=C(\C#N)C(=O)Nc1cc(Br)ccc1Br | 105% | 110% | 114% | 109% | 109% | 109% | 108% | 105% | 99.6% | 97.9% | 95% | 100% | 109% | 104% | 108% | 105% | 107% | 100% | 101% | 104% | 96.4% | 86.5% | 106% | 113% | 114% | 109% | 106% | 104% | 103% | 116% | 96.3% | 94.5% | 94.5%
2 | COC1=CC=CC(=C1N)\C2=C\C(=O)C3=C(O2)C=CC=C3 | 110% | 122% | 122% | 133% | 128% | 129% | 134% | 129% | 129% | 133% | 120% | – | – | – | – | – | – | – | – | – | – | – | – | – | – | – | – | – | – | – | – | – | –
3 | Cc1csc(NC(=O)c2sc3nc4c(c(C(F)(F)F)c3c2N)CCC4)n1 | 88.3% | 102% | 98.1% | 98% | 94.4% | 93.8% | 95% | 91.3% | 90.3% | 84.5% | 83.4% | 87.2% | 100% | 94% | 92.1% | 88.6% | 91.1% | 98.7% | 90.1% | 88.1% | 79.2% | 86.5% | 82.7% | 83.3% | 81.6% | 84.3% | 89.4% | 86.4% | 88.6% | 78.2% | 84.9% | 69.9% | 73.6%
4 | CN(C)CCN(C)C(=O)c1ccc(NC(=O)Nc2ccc(-c3nc(N4CCOCC4)c4ccn(CC(F)(F)F)c4n3)cc2)cc1 | 114% | 120% | 112% | 122% | 106% | 100% | 101% | 89.7% | 90.8% | 90.8% | 83.2% | 115% | 114% | 121% | 118% | 85% | 77.9% | 77.7% | 67.6% | 64.9% | 65.4% | 69.9% | – | – | – | – | – | – | – | – | – | – | –
5 | O=C(Nc1ncc(SCCN2CCCC2)s1)[C@]1(c2ccc([S+](=O)([O-])C3CC3)cc2)C[C@H]1C1CCCCC1 | 117% | 115% | 121% | 121% | 116% | 113% | 116% | 108% | 111% | 96.5% | 68.8% | 120% | 120% | 111% | 123% | 108% | 123% | 105% | 112% | 105% | 108% | 43.6% | 111% | 122% | 114% | 121% | 109% | 118% | 120% | 109% | 108% | 88.3% | 35.9%
6 | COc1ccc2[nH]c([S+]([O-])Cc3ncc(C)c(OC)c3C)nc2c1 (centres undefined) | 82.5% | 85.9% | 92.3% | 90% | 91.6% | 90% | 90.4% | 92% | 95.5% | 95.4% | 78.4% | 73.7% | 86.8% | 81.3% | 89.6% | 85.1% | 78% | 85.8% | 91.9% | 85.2% | 84.9% | 67.4% | 79.2% | 79.8% | 78.2% | 77% | 76.8% | 75.1% | 76.7% | 76.4% | 70.6% | 79.6% | 66.6%
7 | Cc1cc(Nc2nc(N[C@@H](C)c3ccc(F)cc3)c(C#N)cc2F)n[nH]1 | 105% | 101% | 96.7% | 105% | 102% | 102% | 101% | 94.2% | 22.1% | 27.6% | 56.8% | 104% | 103% | 106% | 105% | 98.9% | 100% | 107% | 93% | 23% | 44.7% | 53.1% | 96.7% | 89.5% | 104% | 97.4% | 95.6% | 104% | 87.5% | 84.4% | 34.2% | 45.4% | 54.8%
8 | CN1CCC[C@@H]1CCO[C@](C)(c1ccccc1)c1ccc(Cl)cc1 | 94.5% | 100% | 99.3% | 113% | 105% | 104% | 104% | 107% | 112% | 109% | 97.2% | 97.8% | 104% | 106% | 104% | 108% | 98.1% | 104% | 114% | 100% | 119% | 101% | 93.9% | 101% | 111% | 106% | 103% | 100% | 105% | 102% | 104% | 108% | 90%
9 | CCOC(=O)c1cncn1[C@H](C)c1ccccc1 | 122% | 123% | 115% | 127% | 128% | 121% | 125% | 121% | 112% | 109% | 106% | 125% | 129% | 122% | 136% | 122% | 116% | 121% | 113% | 115% | 114% | 120% | 121% | 126% | 119% | 124% | 128% | 122% | 126% | 121% | 115% | 113% | 111%
10 | C[C@]12CC[C@@H]3c4ccc(O)cc4CC[C@H]3[C@@H]1C[C@@H](O)[C@@H]2O | 117% | 115% | 114% | 120% | 113% | 111% | 119% | 110% | 112% | 104% | 104% | 120% | 115% | 116% | 114% | 125% | 129% | 126% | 124% | 123% | 108% | 107% | 116% | 120% | 125% | 123% | 115% | 117% | 123% | 118% | 109% | 114% | 105%
11 | Cc1cc(Nc2cc(CN3CCOCC3)c3nc(C)c(Cc4ccc(Cl)cc4F)n3n2)[nH]n1 | 112% | 105% | 119% | 116% | 109% | 111% | 114% | 104% | 96.5% | 34.8% | 78.4% | 120% | 114% | 117% | 117% | 110% | 116% | 96.2% | 109% | 86.6% | 48.1% | 56.5% | 106% | 101% | 115% | 114% | 104% | 111% | 99.7% | 104% | 95.8% | 51.5% | 62.7%
12 | O=C(c1ccc(F)c(F)c1Nc1ccc(I)cc1F)N1CC(O)([C@@H]2CCCCN2)C1 | 93.9% | 102% | 102% | 111% | 109% | 108% | 100% | 99% | 93.6% | 12.6% | 11.1% | 97.3% | 102% | 112% | 97.8% | 101% | 104% | 87.5% | 93% | 82.7% | 12.8% | 7.93% | 88.6% | 114% | 115% | 116% | 111% | 108% | 114% | 105% | 96.2% | 36.8% | 14.8%
13 | C[C@]12CC[C@H]3[C@@H](C\C=C/4C[C@@H](O)CC[C@]34C)[C@@H]1CCC2=O | 111% | 110% | 117% | 108% | 110% | 115% | 107% | 111% | 58% | 102% | 96.2% | – | – | – | – | – | – | – | – | – | – | – | 111% | 109% | 115% | 108% | 122% | 114% | 105% | 102% | 99.1% | 101% | 98.5%
14 | COc1cc([C@H]2Oc3cc([C@H]4Oc5cc(O)cc(O)c5C(=O)[C@@H]4O)ccc3O[C@@H]2CO)ccc1O | 108% | 118% | 106% | 109% | 118% | 119% | 112% | 110% | 105% | 99.8% | 99.8% | 113% | 112% | 125% | 109% | 113% | 104% | 98.9% | 112% | 116% | 101% | 94.2% | 102% | 109% | 115% | 105% | 111% | 106% | 103% | 101% | 96.7% | 100% | 90.1%
15 | O=C(Oc1ccc([N+](=O)[O-])cc1)N1CCC(C(O)(c2ccc3c(c2)OCO3)c2ccc3c(c2)OCO3)CC1 | 90% | 95.5% | 90.2% | 98.7% | 92% | 99.4% | 102% | 91.4% | 93.6% | 79.3% | 69.3% | 91.8% | 85% | 90.3% | 99.3% | 91.3% | 91.9% | 99.3% | 90.3% | 68.5% | 93.7% | 93.1% | 75.9% | 88.5% | 86.3% | 88.6% | 90.2% | 90.3% | 86.4% | 91.8% | 73.5% | 91.1% | 84.9%
16 | CN1CCN2c3ncccc3Cc3ccccc3C2C1 (centres undefined) | 122% | 119% | 113% | 120% | 122% | 115% | 114% | 119% | 114% | 108% | 111% | 134% | 118% | 124% | 132% | 129% | 125% | 135% | 121% | 117% | 112% | 101% | 125% | 118% | 113% | 120% | 121% | 118% | 128% | 115% | 111% | 108% | 100%
